Consider 17 molecules from US10752587B2, “Homobispiperidinyl derivatives as liver X receptor beta agonists, compositions and their use” (Merck Sharp & Dohme Corp., priority 2015, dated 2020).

Experiment [1] has as its target T1, glutathione-S-transferase (GST) tagged LXRbeta LBD (ligand binding domain) (Homo sapiens, UniProt P55055).
T1 construct: purchased Invitrogen pv4658.pps
T1 sequence (P55055 222-460 limits assumed): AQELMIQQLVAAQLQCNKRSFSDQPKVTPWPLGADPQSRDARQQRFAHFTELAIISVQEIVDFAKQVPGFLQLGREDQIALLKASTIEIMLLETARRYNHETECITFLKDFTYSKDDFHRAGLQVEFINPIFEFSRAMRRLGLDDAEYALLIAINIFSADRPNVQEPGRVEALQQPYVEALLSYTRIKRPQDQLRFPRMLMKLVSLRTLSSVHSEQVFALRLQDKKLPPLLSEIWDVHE
Description: LanthaScreen TR-FRET Liver X Receptor Coactivator Assay, co-activator recruitment to LXRbeta LBD. The class given is biochemical. Conditions: for Emax: efficacy at max dose, in relation to reference dual agonist T0901317, read-out: LXR beta Activity @ max dose (%); for EC50: potency (Inflection Point, IP), co-activator recruitment to LXRbeta LBD, in relation to T0901317, read-out: LXR beta IP. The method, boiled down: (§1)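 TR-FRET coactivator recruitment; compound + LBD, then fluorescein-coactivator peptide/Tb-anti-GST Ab mix; RT incubation; IP and Emax vs T0901317.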
A general note: In TR-FRET formats the signal depends on donor and acceptor labels being close together.

Experiment [2] deals with T2, glutathione-S-transferase (GST) tagged LXRalpha LBD (ligand binding domain) (Homo sapiens, UniProt Q13133).
T2 construct: purchased Invitrogen pv4655
T2 sequence (Q13133 209-447 limits assumed): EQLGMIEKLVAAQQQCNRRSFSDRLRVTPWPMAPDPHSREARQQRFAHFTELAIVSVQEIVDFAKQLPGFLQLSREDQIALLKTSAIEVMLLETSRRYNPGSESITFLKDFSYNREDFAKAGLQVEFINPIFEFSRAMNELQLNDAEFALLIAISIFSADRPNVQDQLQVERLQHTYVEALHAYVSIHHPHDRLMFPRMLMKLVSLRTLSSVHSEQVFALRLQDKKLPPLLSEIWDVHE
Description: LanthaScreen TR-FRET Liver X Receptor Coactivator Assay, co-activator recruitment to LXRalpha LBD. The class given is biochemical. Conditions: for Emax: efficacy at max dose, in relation to reference dual agonist T0901317, read-out: LXR alpha Activity @ max dose (%); for EC50 / LXR alpha IP (nM): potency (Inflection Point, IP), co-activator recruitment to LXRalpha LBD, in relation to T0901317; for EC50: read-out: LXR alpha IP. In a few lines: as §1

`O=C(c1ccc(N2CCC(CC3CCN(C(=O)[C@](O)(c4ccccc4)C(F)(F)F)CC3)CC2)cc1Cl)N1CC(F)(F)C1` [Example 4-8, (2R)-3-{4-[(1-{3-chloro-4-[(3,3-difluoroazetidin-1-yl)carbonyl]phenyl}piperidin-4-yl)methyl]piperidin-1-yl}-1,1,1-trifluoro-3-oxo-2-phenylpropan-2-ol]: in experiment [1], the Emax is 93% and the EC50 stood at 172 nM. For the same molecule, in experiment [2], the Emax was 37% and the EC50 is 984 nM.

On to `COCCN(C)C(=O)c1ccc(N2CCC(CC3CCN(C(=O)[C@](O)(c4ccccc4)C(F)(F)F)CC3)CC2)cc1Cl` [Example 4-9], for which, in experiment [1], the Emax amounted to 69% and the EC50 was 17 nM. Besides, in experiment [2], the Emax was 31% and the EC50 is 195 nM.

Take `CN(Cc1ccon1)C(=O)c1ccc(N2CCC(CC3CCN(C(=O)[C@](O)(c4ccccc4)C(F)(F)F)CC3)CC2)cc1Cl` [Example 4-10, 2-chloro-N-(isoxazol-3-ylmethyl)-N-methyl-4-[4-({1-[(2R)-3,3,3-trifluoro-2-hydroxy-2-phenylpropanoyl]piperidin-4-yl}methyl)piperidin-1-yl]benzamide]: in experiment [1], the Emax turned out to be 62% and the EC50 is 8 nM. In experiment [2], the Emax was found to be 30% and the EC50 was 246 nM.

For the molecule `CN(C(=O)c1ccc(N2CCC(CC3CCN(C(=O)[C@](O)(c4ccccc4)C(F)(F)F)CC3)CC2)cc1Cl)C1CC1` [Example 4-11, 2-chloro-N-cyclopropyl-N-methyl-4-[4-({1-[(2R)-3,3,3-trifluoro-2-hydroxy-2-phenylpropanoyl]piperidin-4-yl}methyl)piperidin-1-yl]benzamide], the values for the Emax in experiment [1] and in experiment [2] were 74% and 38%, respectively. The EC50 turned out to be 43 nM in experiment [1] and 402 nM in experiment [2].

With `CCN(C)C(=O)c1ccc(N2CCC(CC3CCN(C(=O)[C@](O)(c4ccccc4)C(F)(F)F)CC3)CC2)cc1Cl` [Example 4-12, 2-chloro-N-ethyl-N-methyl-4-[4-({1-[(2R)-3,3,3-trifluoro-2-hydroxy-2-phenylpropanoyl]piperidin-4-yl}methyl)piperidin-1-yl]benzamide], in experiment [1], the Emax came to 83% and the EC50 worked out at 14 nM. In experiment [2], the Emax stood at 34% and the EC50 turned out to be 166 nM.

With `CN(C)CCN(C)C(=O)c1ccc(N2CCC(CC3CCN(C(=O)[C@](O)(c4ccccc4)C(F)(F)F)CC3)CC2)cc1Cl` [Example 4-13, 2-chloro-N-[2-(dimethylamino)ethyl]-N-methyl-4-[4-({1-[(2R)-3,3,3-trifluoro-2-hydroxy-2-phenylpropanoyl]piperidin-4-yl}methyl)piperidin-1-yl]benzamide], the Emax in experiment [1] turned out to be 62%; in experiment [2], 30%. In addition, the figures for the EC50 in experiment [1] and in experiment [2] were 21 nM and 678 nM, respectively.

Turning to `COCCN(C)C(=O)c1ccc(N2CCC(OC3CCN(C(=O)[C@](O)(c4ccccc4)C(F)(F)F)CC3)CC2)cc1Cl` [Example 4-14, 2-chloro-N-(2-methoxyethyl)-N-methyl-4-[4-({1-[(2R)-3,3,3-trifluoro-2-hydroxy-2-phenylpropanoyl]piperidin-4-yl}oxy)piperidin-1-yl]benzamide], the Emax in experiment [1] amounted to 88%; in experiment [2], 42%. Moreover, the EC50 worked out at 117 nM in experiment [1] and 2170 nM in experiment [2].

Turning to `CN(Cc1ccon1)C(=O)c1ccc(N2CCC(OC3CCN(C(=O)[C@](O)(c4ccccc4)C(F)(F)F)CC3)CC2)cc1Cl` [Example 4-15, 2-chloro-N-(isoxazol-3-yl-methyl)-N-methyl-4-[4-({1-[(2R)-3,3,3-trifluoro-2-hydroxy-2-phenylpropanoyl]piperidin-4-yl}oxy)piperidin-1-yl]benzamide], in experiment [1], the Emax is 87% and the EC50 is 38 nM. In experiment [2], the Emax came out at 40% and the EC50 turned out to be 1300 nM.

For `CN(C)CCNC(=O)c1ccc(N2CCC(CC3CCN(C(=O)[C@](O)(c4ccccc4)C(F)(F)F)CC3)CC2)cc1Cl` [Example 4-16, 2-chloro-N-[2-(dimethylamino)ethyl]-4-[4-({1-[(2R)-3,3,3-trifluoro-2-hydroxy-2-phenylpropanoyl]piperidin-4-yl}methyl)piperidin-1-yl]benzamide], in experiment [1], the Emax was 64% and the EC50 stood at 183 nM. In addition, in experiment [2], the Emax was found to be 28% and the EC50 worked out at 688 nM.

Consider `O=C(c1ccc(N2CCC(CC3CCN(C(=O)[C@](O)(c4ccccc4)C(F)(F)F)CC3)CC2)cc1Cl)N1CCC(c2ccncc2)C1` (stereo partly drawn) [Example 4-17, (2R)-3-{4-[(1-{3-chloro-4-[(3-pyridin-4-ylpyrrolidin-1-yl)carbonyl]phenyl}piperidin-4-yl)methyl]piperidin-1-yl}-1,1,1-trifluoro-3-oxo-2-phenylpropan-2-ol], for which, in experiment [1], the Emax was 45% and the EC50 stood at 270 nM. For the same molecule, in experiment [2], the Emax turned out to be 27% and the EC50 amounted to 1020 nM.

Take `O=C(c1ccc(N2CCC(CC3CCN(C(=O)[C@](O)(c4ccccc4)C(F)(F)F)CC3)CC2)cc1Cl)N1CC[C@H](F)C1` [Example 4-18]: the figures for the Emax in experiment [1] and in experiment [2] were 67% and 39%, respectively. The EC50 in experiment [1] was determined as 59 nM; in experiment [2], 485 nM.

Regarding `O=C(c1ccc(N2CCC(CC3CCN(C(=O)[C@](O)(c4ccccc4)C(F)(F)F)CC3)CC2)cc1Cl)N1CCC(n2ccnc2)C1` (stereo partly drawn) [Example 4-19, (2R)-3-(4-{[1-(3-chloro-4-{[3-(1H-imidazol-1-yl)pyrrolidin-1-yl]carbonyl}phenyl)piperidin-4-yl]methyl}piperidin-1-yl)-1,1,1-trifluoro-3-oxo-2-phenylpropan-2-ol], in experiment [1], the Emax was 43% and the EC50 came out at 141 nM. In experiment [2], the Emax was 25% and the EC50 was 765 nM.

Regarding `CN(Cc1cncs1)C(=O)c1ccc(N2CCC(CC3CCN(C(=O)[C@](O)(c4ccccc4)C(F)(F)F)CC3)CC2)cc1Cl` [Example 4-20, 2-chloro-N-methyl-N-(1,3-thiazol-5-ylmethyl)-4-[4-({1-[(2R)-3,3,3-trifluoro-2-hydroxy-2-phenylpropanoyl]piperidin-4-yl}methyl)piperidin-1-yl]benzamide], the Emax was determined as 63% in experiment [1] and 34% in experiment [2]. In addition, the EC50 in experiment [1] is 95 nM; in experiment [2], 541 nM.

For the molecule `O=C(c1ccc(N2CCC(CC3CCN(C(=O)[C@](O)(c4ccccc4)C(F)(F)F)CC3)CC2)cc1Cl)N1[C@H]2CC[C@@H]1CC2` [Example 4-21, (2R)-3-{4-[(1-{4-[(1s,4s)-7-aza-bicyclo[2.2.1]hept-7-ylcarbonyl]-3-chlorophenyl}piperidin-4-yl)methyl]piperidin-1-yl}-1,1,1-trifluoro-3-oxo-2-phenylpropan-2-ol], in experiment [1], the Emax turned out to be 63% and the EC50 was 74 nM. Further, in experiment [2], the Emax was 25% and the EC50 was 457 nM.

Consider `O=C(c1ccc(N2CCC(CC3CCN(C(=O)[C@](O)(c4cc(Cl)cc(Cl)c4)C(F)(F)F)CC3)CC2)cc1Cl)N1CC[C@@H](O)C1` [Example 4-22, (3R)-1-({2-chloro-4-[4-({1-[(2R)-2-(3,5-dichloro-phenyl)-3,3,3-trifluoro-2-hydroxypropanoyl]piperidin-4-yl}methyl)piperidin-1-yl]phenyl}carbonyl) pyrrolidin-3-ol], for which, in experiment [1], the Emax came to 38% and the EC50 is 35 nM. In addition, in experiment [2], the Emax came out at 0% and the “LXR alpha IP (nM)” value is listed as “NO IP”.

Regarding `O=C(c1ccc(N2CCC(CC3CCN(C(=O)[C@](O)(c4cc(Cl)cc(Cl)c4)C(F)(F)F)CC3)CC2)cc1Cl)N1CCC[C@@H]1CO` [Example 4-23, (2R)-3-(4-{[1-(3-chloro-4-{[(2R)-2-(hydroxymethyl)pyrrolidin-1-yl]carbonyl}phenyl)piperidin-4-yl]methyl}piperidin-1-yl)-2-(3,5-dichlorophenyl)-1,1,1-trifluoro-3-oxopropan-2-ol], in experiment [1], the Emax is 30% and the EC50 is 51 nM. Besides, in experiment [2], the Emax was found to be 4% and the “LXR alpha IP (nM)” value is “NO IP”.

With `O=C(c1ccc(N2CCC(CC3CCN(C(=O)[C@](O)(c4cc(Cl)cc(Cl)c4)C(F)(F)F)CC3)CC2)cc1Cl)N1CCC[C@H]1CO` [Example 4-24, (2R)-3-(4-{[1-(3-chloro-4-{[(2S)-2-(hydroxymethyl)pyrrolidin-1-yl]carbonyl}phenyl)piperidin-4-yl]methyl}piperidin-1-yl)-2-(3,5-dichlorophenyl)-1,1,1-trifluoro-3-oxopropan-2-ol], in experiment [1], the Emax was 28% and the EC50 was 7 nM. In experiment [2], the Emax turned out to be 0% and the “LXR alpha IP (nM)” value is on record as “NO IP”.
